From US20230322815A1, “NOVEL COMPOUNDS AND THERAPEUTIC USES THEREOF” (University of Huddersfield, priority 2020, published 2023)

Tests used:
[1] = test system: H460 tumors; test: Chick embryo chorioallantoic membrane (CAM) assay, in ovo efficacy; type: in vivo, human tumor cells on chick embryo CAM; details: for doses giving statistically significant regression of tumor growth (mean tumor weight at E18) / doses giving reduction of tumor growth comparable to SoC: L2Zn3 54, 108, 216 μM, L2Cu3 42, 84, 168 μM; for doses giving statistically significant regression of tumor growth (mean tumor weight at E18): 100 μl on tumor graft at E11, E13, E15, E17; for doses giving reduction of tumor growth comparable to SoC: SoC paclitaxel; for H460 metastatic load in the lower CAM (qPCR for Alu sequences): all three tested doses
Description: FIG. 21. Activity of [L2Cu3]^6+ and [L2Zn3]^6+ against primary H460 tumors. The results presented represent the mean tumour weight±SEM following treatment at 3 different doses of [L2Cu3]^6+ and [L2Zn3]^6+: L2Zn3 [1]=54 μM, L2Zn3 [2]=108 μM, L2Zn3 [3]=216 μM; L2Cu3 [1]=42 μM, L2Cu3[2]=84 μM, L2Cu3[3]=168 μM. SoC paclitaxel. Statistical analysis by one way ANOVA (*): 0.05≥p value >0.01; (**): 0.01≥p value >0.001; (***): 0.001≥p value; (****): 0.0001≥p value. Number per experimental group n=10-13.
FIG. 22. Evaluation of the effects of [L2Cu3]^6+ and [L2Zn3]^6+ on primary H460 metastasis to the lower CAM. Relative ALU expression (relative to chicken GAPDH) as a quantitive marker of metastasis of human cells to the lower CAM. L2Zn3 [1]=54 μM, L2Zn3 [2]=108 μM, L2Zn3 [3]=216 μM; L2Cu3 [1]=42 μM, L2Cu3[2]=84 μM, L2Cu3[3]=168 μM. SoC paclitaxel. Relative expression ±SEM. Statistical analysis by one way ANOVA (*): 0.05≥p value >0.01; (**): 0.01≥p value >0.001; (***): 0.001≥p value; (****): 0.0001≥p value. Number per experimental group n=7-8.
[L2Cu3]^6+ and [L2Zn3]^6+ were evaluated at three different doses for in ovo anti-cancer activity, toxicity and anti-metastatic activity against tumors initiated from three different human cancer cell line models (H460, HT29, HCT116), in the chick embryo chorioallantoic membrane (CAM) assay.
Each compound was provided to the contract research organisation (CRO) Inovotion (La Tronche, France) conducting the in ovo study, as a powder pre-weighed in single vials (2 equivalents of ligand, 3 equivalents of metal; and stored at room temperature). Before use, this was then dissolved in DMSO to 50 mM to generate a stock solution and further freshly diluted in RPM11640 or McCoys aqueous cell culture media for administration.
A standard of care (SoC) drug for the particular tumour type was tested concurrently as a comparative control for in vivo efficacy and toxicity evaluation. A solvent control served as a negative control for both SoC and experimental compounds.
10^6 tumor cells (H460, HT29 or HCT116) were grafted onto the upper chorioallantoic membrane (CAM) of the developing chick embryo on embryonic day 9 (E9). Access to the upper CAM was through a small hole drilled through the eggshell of fertilized White Leghorn eggs (into the air sac) on E9 (15 eggs per experimental group).
100 μl of freshly prepared experimental compound, vehicle control or standard-of-care (SoC) drug at their working concentrations were pipetted onto the tumor graft at E11, E13, E15 and E17. On day E18, the upper CAM (with tumor) was removed, washed by PBS buffer and then directly transferred in PFA (fixation for 48 hrs). After that, tumors were carefully cut away from normal CAM tissue and weighed.
On day E18, a 1 cm^2 portion of the lower CAM was collected (n=8 per group), stored at −20° C. and later processed to extract DNA. Samples were analysed for human genomic DNA (qPCR for Alu sequences) as a quantitative marker of tumor metastasis to the lower CAM.

[2] = test system: 140 human kinases; test: Cell-free screen of 140 kinases (33P ATP, Premier Screen); type: biochemical; details: 10 μM complex
Description: FIG. 9. Effects of [L2Zn3]^6+ and [L2Cu3]^6+ on the activity of purified human kinases. a,b, Percentage inhibition of the indicated kinases by [L2Zn3]^6+ (a) and [L2Cu3]^6+ (b) respectively at a concentration of 10 μM; full results are presented in the ESI. c,d, Kinases whose activity is stimulated by [L2Zn3]^6+ (c) or [L2Cu3]^6+ (d) complexes. e,f, Kinome map showing kinases inhibited (red) or stimulated (green) by [L2Zn3]^6+ (e) or [L2Cu3]^6+ (f). III ustration reproduced courtesy of Cell Signalling Technology Inc (www.cellsignal.com)
FIG. 16. The effect of [L2Zn3]^6+ and [L2Cu3]^6+ on the activity of recombinant human kinases. The compounds were submitted to the MRC Protein Phosphorylation and Ubiquitination Unit International Centre for Kinase Profiling (University of Dundee) and tested at a concentration of 10 μM against 140 human kinases (Premier Screen).
Given the ability of the Zn^2+ complex to dephosphorylate amino acids serine, tyrosine and threonine (FIG. 6) and the Cu^2+ complex to bind phenyl phosphate (FIG. 3), it was examined whether the complexes affect the activity of kinases. This was assessed in a cell-free screen of 140 kinases using purified recombinant human kinases and substrate peptides incubated in the presence of ^33P ATP and 10 μM complex or solvent control. […]

[Cu+2].[Cu+2].[Cu+2].c1ccc(-c2csc(NCCN(CCNc3nc(-c4ccccn4)cs3)CCNc3nc(-c4ccccn4)cs3)n2)nc1.c1ccc(-c2csc(NCCN(CCNc3nc(-c4ccccn4)cs3)CCNc3nc(-c4ccccn4)cs3)n2)nc1 [[L2Cu3]^6+]
doses giving statistically significant regression of tumor growth (mean tumor weight at E18) [1]: the two highest tested doses | doses giving reduction of tumor growth comparable to SoC [1]: the highest dose | H460 metastatic load in the lower CAM (qPCR for Alu sequences) [1]: no statistically significant metastatic regression | inhibition of the most potently inhibited kinases [2]: ~100%

[Zn+2].[Zn+2].[Zn+2].c1ccc(-c2csc(NCCN(CCNc3nc(-c4ccccn4)cs3)CCNc3nc(-c4ccccn4)cs3)n2)nc1.c1ccc(-c2csc(NCCN(CCNc3nc(-c4ccccn4)cs3)CCNc3nc(-c4ccccn4)cs3)n2)nc1 [[L2Zn3]^6+]
doses giving statistically significant regression of tumor growth (mean tumor weight at E18) [1]: all three tested doses | doses giving reduction of tumor growth comparable to SoC [1]: all three tested doses | H460 metastatic load in the lower CAM (qPCR for Alu sequences) [1]: Statistically significant decreases | inhibition of the most potently inhibited kinases [2]: ~100%
